Assay results: ChEMBL document CHEMBL1201862, “PubChem BioAssay data set” (2004)
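Following 48 hours of exposure in 96-well plates, responses at five concentrations were used to interpolate endpoints linearly. GI50 = concentration required for 50% inhibition of growth.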 The source made the active and inactive calls. Cut-off read from the data, not from the text of the source: active = GI50 up to about 1.1 µM and inactive = higher.

How the values were obtained:
Assay in all cases: DTP human tumour cell line panel, 48 h
OVCAR-5 = system: OVCAR-5
ACHN = system: ACHN
K562 = system: K562
786-0 = system: 786-0
RPMI-8226 = system: RPMI-8226
UACC-257 = system: UACC-257
SW-620 = system: SW-620
HCC 2998 = system: HCC 2998
CAKI-1 = system: CAKI-1
OVCAR-3 = system: OVCAR-3
SNB-19 = system: SNB-19
HOP-92 = system: HOP-92
A498 = system: A498
EKVX = system: EKVX
SK-MEL-5 = system: SK-MEL-5
CCRF-CEM = system: CCRF-CEM

Measured: GI50

COC(=O)NC(=O)c1cn(C2OC(CO)C(O)C2O)c(=O)[nH]c1=O (stereo not given)
inactive: OVCAR-5 > 100 µM | ACHN > 100 µM | K562 > 100 µM | 786-0 > 100 µM | RPMI-8226 > 100 µM | UACC-257 > 100 µM | SW-620 > 100 µM | HCC 2998 > 100 µM | CAKI-1 > 100 µM | OVCAR-3 > 100 µM | SNB-19 > 100 µM | HOP-92 > 100 µM

CN(C)CCNC(=O)c1c2ccccc2cc2ccccc12
inactive: A498 31.5 µM | OVCAR-5 50.9 µM | ACHN 32.4 µM | EKVX > 100 µM | K562 23.2 µM | 786-0 57 µM | RPMI-8226 17.5 µM | UACC-257 18.5 µM | SW-620 34.4 µM | HCC 2998 32.7 µM | OVCAR-3 93.8 µM | SNB-19 > 100 µM | SK-MEL-5 16.9 µM | CCRF-CEM 31.1 µM | HOP-92 60.4 µM

NNC(=O)C(=O)N/N=C(\CCC(=O)Nc1ccc(Cl)cc1)Cc1nc2ccccc2s1
inactive: A498 52 µM | OVCAR-5 33.1 µM | ACHN 26.1 µM | EKVX 27.4 µM | K562 18.9 µM | 786-0 17.3 µM | RPMI-8226 25.6 µM | UACC-257 32.9 µM | SW-620 35.3 µM | HCC 2998 44.7 µM | CAKI-1 38.2 µM | OVCAR-3 18.2 µM | SNB-19 30.5 µM | SK-MEL-5 21.8 µM | CCRF-CEM 3.32 µM | HOP-92 45.5 µM

O=C(N/C(=C\c1ccc([N+](=O)[O-])cc1)c1nc2c(O)nc(S)nc2[nH]1)c1ccccc1
inactive: OVCAR-5 > 100 µM | ACHN > 100 µM | EKVX > 100 µM | K562 73.1 µM | 786-0 > 100 µM | SW-620 > 100 µM | HCC 2998 > 100 µM | CAKI-1 > 100 µM | OVCAR-3 > 100 µM | SNB-19 > 100 µM | SK-MEL-5 > 100 µM | CCRF-CEM 92.3 µM | HOP-92 43.7 µM

c1ccc(C2=NN(c3ccccc3)C3(S2)SC(c2ccccc2)(c2ccccc2)c2ccccc23)cc1 (stereo not given)
inactive: A498 > 100 µM | OVCAR-5 > 100 µM | ACHN > 100 µM | EKVX > 100 µM | K562 > 100 µM | 786-0 > 100 µM | RPMI-8226 > 100 µM | UACC-257 > 100 µM | SW-620 > 100 µM | HCC 2998 > 100 µM | CAKI-1 > 100 µM | OVCAR-3 > 100 µM | SNB-19 > 100 µM | SK-MEL-5 > 100 µM | CCRF-CEM > 100 µM | HOP-92 > 100 µM

CC(=O)NNc1nc(C)c(C(=O)/C=C/c2ccccc2Cl)s1
inactive: A498 > 100 µM | OVCAR-5 > 100 µM | ACHN > 100 µM | EKVX > 100 µM | K562 > 100 µM | 786-0 > 100 µM | RPMI-8226 > 100 µM | UACC-257 > 100 µM | SW-620 > 100 µM | HCC 2998 > 100 µM | CAKI-1 > 100 µM | OVCAR-3 > 100 µM | SNB-19 > 100 µM | SK-MEL-5 > 100 µM | CCRF-CEM > 100 µM | HOP-92 > 100 µM

OCCN(CCO)c1cccc(N(CCO)CCO)c1
inactive: A498 > 100 µM | ACHN > 100 µM | EKVX > 100 µM | K562 > 100 µM | 786-0 > 100 µM | RPMI-8226 > 100 µM | UACC-257 > 100 µM | SW-620 > 100 µM | CAKI-1 > 100 µM | OVCAR-3 > 100 µM | SNB-19 39.2 µM | SK-MEL-5 > 100 µM | CCRF-CEM > 100 µM | HOP-92 > 100 µM

O=c1c2ccccc2c(=O)n2n1-c1cccc(c1)CSSCc1cccc-2c1
inactive: A498 > 10 µM | OVCAR-5 > 10 µM | ACHN > 10 µM | EKVX > 10 µM | K562 > 10 µM | 786-0 58.3 µM | RPMI-8226 > 10 µM | UACC-257 > 10 µM | SW-620 > 10 µM | HCC 2998 > 10 µM | CAKI-1 > 10 µM | OVCAR-3 > 10 µM | SNB-19 > 10 µM | SK-MEL-5 > 10 µM | CCRF-CEM > 10 µM | HOP-92 5.9 µM

O=C(CC1C(=O)Nc2ccccc2[S+]1[O-])Nc1ccc(Cl)cc1 (stereo not given)
inactive: OVCAR-5 > 100 µM | ACHN 79.3 µM | K562 > 100 µM | 786-0 39 µM | RPMI-8226 > 100 µM | UACC-257 69.5 µM | SW-620 > 100 µM | HCC 2998 79.6 µM | CAKI-1 > 100 µM | OVCAR-3 > 100 µM | SNB-19 93.3 µM | HOP-92 29 µM
